Laboratory results from US12077503B2, “Substituted cyclic amides and their use as herbicides” (FMC CORPORATION, priority 2015, dated 2024).

What was measured:
Format in all cases: in vivo
[1] = tested on: barnyardgrass (Echinochloa crus-galli); test: Test B flooded paddy test; conditions: 250 g ai/ha, Flood, 0 to 100 scale where 0 is no effect and 100 is complete control
Procedure, shortened: (§1)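 Plants at 2-leaf stage flooded to 3 cm above soil, with compounds applied directly to paddy water and that depth maintained. Plants kept in greenhouse 13–15 d. Visual rating versus controls on a 0 (no effect) to 100 (complete control) scale.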

[2] = tested on: rice (Oryra sativa); test: Test B flooded paddy test; conditions: 250 g ai/ha, Flood, 0 to 100 scale where 0 is no effect and 100 is complete control
Procedure, shortened: as §1

[3] = tested on: sedge, umbrella (small-flower umbrella sedge, Cyperus difformis); test: Test B flooded paddy test; conditions: 250 g ai/ha, Flood, 0 to 100 scale where 0 is no effect and 100 is complete control
Procedure, shortened: as §1

[4] = tested on: ducksalad (Heteranthera limosa); test: Test B flooded paddy test; conditions: 250 g ai/ha, Flood, 0 to 100 scale where 0 is no effect and 100 is complete control
Procedure, shortened: as §1

[5] = tested on: pigweed (Amaranthus retroflexus); test: Test A postemergence
Procedure, shortened: (§2)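 Greenhouse, ~10 d after spray; visual injury vs untreated controls, 0 = no effect, 100 = complete control. Preemergence: directed soil spray over planted seeds. Postemergence: plants 2–10 cm, 1–2 leaf stage. Loam/sand blend. Compound in non-phytotoxic solvent with surfactant.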

[6] = tested on: corn (Zea mays); test: Test A postemergence
Procedure, shortened: as §2

[7] = tested on: barnyardgrass (Echinochloa crus-galli); test: Test A postemergence
Procedure, shortened: as §2

[8] = tested on: giant foxtail (Setaria faberii); test: Test A postemergence
Procedure, shortened: as §2

[9] = tested on: ragweed (common ragweed, Ambrosia elatior); test: Test A postemergence
Procedure, shortened: as §2

[10] = tested on: wheat (Triticum aestivum); test: Test A postemergence
Procedure, shortened: as §2

[11] = tested on: ryegrass, Italian (Italian ryegrass, Lolium multiflorum); test: Test A postemergence
Procedure, shortened: as §2

[12] = tested on: blackgrass (Alopecurus myosuroides); test: Test A postemergence
Procedure, shortened: as §2

[13] = tested on: Galium (catchweed bedstraw, Galium aparine); test: Test A postemergence
Procedure, shortened: as §2

[14] = tested on: Kochia (Kochia scoparia); test: Test A postemergence
Procedure, shortened: as §2

[15] = tested on: pigweed (Amaranthus retroflexus); test: Test A preemergence
[16] = tested on: barnyardgrass (Echinochloa crus-galli); test: Test A preemergence
Procedure, shortened: as §2

[17] = tested on: giant foxtail (Setaria faberii); test: Test A preemergence
Procedure, shortened: as §2

[18] = tested on: ragweed (common ragweed, Ambrosia elatior); test: Test A preemergence
Procedure, shortened: as §2

[19] = tested on: ryegrass, Italian (Italian ryegrass, Lolium multiflorum); test: Test A preemergence
Procedure, shortened: as §2

[20] = tested on: Kochia (Kochia scoparia); test: Test A preemergence
Procedure, shortened: as §2

[21] = 125 g ai/ha, postemergence, visual injury rating on 0 to 100 scale (0 no effect, 100 complete control), approx. 10 d
[22] = 500 g ai/ha, postemergence, 0 to 100 scale, 0 no effect, 100 complete control
[23] = 125 g ai/ha, preemergence, 0 to 100 scale (0 no effect, 100 complete control)
[24] = Preemergence, 500 g ai/ha, visual injury approx. 10 d

COCc1ccccc1NC(=O)[C@H]1C(=O)N(C)C[C@@H]1c1cccc(C(F)(F)F)c1 (racemic) [Compound 1060]
pest or weed control at 250 g/ha ([1]; Echinochloa crus-galli, read-out: Barnyardgrass plant response rating): 75% | pest or weed control at 250 g/ha ([2]; Oryza sativa, read-out: Rice plant response rating): 20% | pest or weed control at 250 g/ha ([3]; Cyperus difformis, read-out: Sedge, Umbrella plant response rating): 0% | pest or weed control at 250 g/ha ([4]; Heteranthera limosa, read-out: Ducksalad plant response rating): 90% | pest or weed control at 125 g/ha ([5]; Amaranthus retroflexus, post-emergence, 240 h, 125 g ai/ha, postemergence, visual injury on 0 to 100 scale (0 no effect, 100 complete control), approx. 10 d, read-out: Pigweed plant response rating): 0% | pest or weed control at 31 g/ha ([5]; Amaranthus retroflexus, post-emergence, 240 h, Postemergence, 31 g ai/ha, visual injury after approx. 10 d, 0 to 100 scale, 0 no effect, 100 complete control, read-out: Plant response rating, Pigweed): 0% | plant injury at 125 g/ha ([6]; Zea mays, post-emergence, 240 h, 125 g ai/ha, postemergence, visual injury on 0 to 100 scale (0 no effect, 100 complete control), approx. 10 d, read-out: Corn plant response rating): 90% | Corn plant response rating (crop injury, 0 = no effect, 100 = complete kill) at 31 g/ha ([6]; Zea mays, post-emergence, 240 h, Postemergence, 31 g ai/ha, visual injury after approx. 10 d, 0 to 100 scale, 0 no effect, 100 complete control): 70% | pest or weed control at 125 g/ha ([7]; Echinochloa crus-galli, post-emergence, 240 h, 125 g ai/ha, postemergence, visual injury on 0 to 100 scale (0 no effect, 100 complete control), approx. 10 d, read-out: Barnyardgrass plant response rating): 100% | pest or weed control at 31 g/ha ([7]; Echinochloa crus-galli, post-emergence, 240 h, Postemergence, 31 g ai/ha, visual injury after approx. 10 d, 0 to 100 scale, 0 no effect, 100 complete control, read-out: Plant response rating, Barnyardgrass): 90% | pest or weed control at 125 g/ha ([8]; Setaria faberi, post-emergence, 240 h, 125 g ai/ha, postemergence, visual injury on 0 to 100 scale (0 no effect, 100 complete control), approx. 10 d, read-out: Foxtail, Giant plant response rating): 90% | pest or weed control at 31 g/ha ([8]; Setaria faberi, post-emergence, 240 h, Postemergence, 31 g ai/ha, visual injury after approx. 10 d, 0 to 100 scale, 0 no effect, 100 complete control, read-out: Plant response rating, Foxtail, Giant): 90% | pest or weed control at 125 g/ha ([9]; Ambrosia artemisiifolia, post-emergence, 240 h, 125 g ai/ha, postemergence, visual injury on 0 to 100 scale (0 no effect, 100 complete control), approx. 10 d, read-out: Ragweed plant response rating): 30% | pest or weed control at 31 g/ha ([9]; Ambrosia artemisiifolia, post-emergence, 240 h, Postemergence, 31 g ai/ha, visual injury after approx. 10 d, 0 to 100 scale, 0 no effect, 100 complete control, read-out: Plant response rating, Ragweed): 0% | plant injury at 125 g/ha ([10]; Triticum aestivum, post-emergence, 240 h, 125 g ai/ha, postemergence, visual injury on 0 to 100 scale (0 no effect, 100 complete control), approx. 10 d, read-out: Wheat plant response rating): 70% | plant injury at 31 g/ha ([10]; Triticum aestivum, post-emergence, 240 h, Postemergence, 31 g ai/ha, visual injury after approx. 10 d, 0 to 100 scale, 0 no effect, 100 complete control, read-out: Plant response rating, Wheat): 30% | pest or weed control at 125 g/ha ([11]; Lolium multiflorum, post-emergence, 240 h, 125 g ai/ha, postemergence, visual injury on 0 to 100 scale (0 no effect, 100 complete control), approx. 10 d, read-out: Ryegrass, Italian plant response rating): 50% | pest or weed control at 31 g/ha ([11]; Lolium multiflorum, post-emergence, 240 h, Postemergence, 31 g ai/ha, visual injury after approx. 10 d, 0 to 100 scale, 0 no effect, 100 complete control, read-out: Plant response rating, Ryegrass, Italian): 50% | pest or weed control at 125 g/ha ([12]; Alopecurus myosuroides, post-emergence, 240 h, 125 g ai/ha, postemergence, visual injury on 0 to 100 scale (0 no effect, 100 complete control), approx. 10 d, read-out: Blackgrass plant response rating): 60% | pest or weed control at 31 g/ha ([12]; Alopecurus myosuroides, post-emergence, 240 h, Postemergence, 31 g ai/ha, visual injury after approx. 10 d, 0 to 100 scale, 0 no effect, 100 complete control, read-out: Plant response rating, Blackgrass): 50% | pest or weed control at 125 g/ha ([13]; Galium, post-emergence, 240 h, 125 g ai/ha, postemergence, visual injury on 0 to 100 scale (0 no effect, 100 complete control), approx. 10 d, read-out: Galium plant response rating): 40% | pest or weed control at 31 g/ha ([13]; Galium, post-emergence, 240 h, Postemergence, 31 g ai/ha, visual injury after approx. 10 d, 0 to 100 scale, 0 no effect, 100 complete control, read-out: Plant response rating, Galium): 0% | pest or weed control at 125 g/ha ([14]; Bassia scoparia, post-emergence, 240 h, 125 g ai/ha, postemergence, visual injury on 0 to 100 scale (0 no effect, 100 complete control), approx. 10 d, read-out: Kochia plant response rating): 0% | pest or weed control at 31 g/ha ([14]; Bassia scoparia, post-emergence, 240 h, Postemergence, 31 g ai/ha, visual injury after approx. 10 d, 0 to 100 scale, 0 no effect, 100 complete control, read-out: Plant response rating, Kochia): 0% | pest or weed control at 31 g/ha ([15]; Amaranthus retroflexus, pre-emergence, 240 h, 31 g ai/ha, Preemergence, 0 to 100 scale where 0 is no effect and 100 is complete control, read-out: Pigweed plant response rating): 0% | pest or weed control at 125 g/ha ([15]; Amaranthus retroflexus, pre-emergence, 240 h, 125 g ai/ha, preemergence, 0 to 100 scale where 0 is no effect and 100 is complete control, approx. 10 d, read-out: Pigweed plant response rating): 30% | pest or weed control at 125 g/ha ([16]; Echinochloa crus-galli, pre-emergence, 240 h, 125 g ai/ha, Preemergence, visual injury rating after approximately 10 d, read-out: Barnyardgrass plant response rating (0 to 100 scale, 0 is no effect, 100 is complete control)): 100% | pest or weed control at 31 g/ha ([16]; Echinochloa crus-galli, pre-emergence, 240 h, Preemergence, 31 g ai/ha, 0 to 100 scale (0 no effect, 100 complete control), read-out: Plant response rating, Barnyardgrass): 90% | pest or weed control at 125 g/ha ([17]; Setaria faberi, pre-emergence, 240 h, 125 g ai/ha, Preemergence, visual injury rating after approximately 10 d, read-out: Foxtail, Giant plant response rating (0 to 100 scale, 0 is no effect, 100 is complete control)): 100% | pest or weed control at 31 g/ha ([17]; Setaria faberi, pre-emergence, 240 h, Preemergence, 31 g ai/ha, 0 to 100 scale (0 no effect, 100 complete control), read-out: Plant response rating, Foxtail, Giant): 90% | pest or weed control at 31 g/ha ([18]; Ambrosia artemisiifolia, pre-emergence, 240 h, 31 g ai/ha, Preemergence, 0 to 100 scale where 0 is no effect and 100 is complete control, read-out: Ragweed plant response rating): 0% | pest or weed control at 125 g/ha ([18]; Ambrosia artemisiifolia, pre-emergence, 240 h, 125 g ai/ha, preemergence, 0 to 100 scale where 0 is no effect and 100 is complete control, approx. 10 d, read-out: Ragweed plant response rating): 30% | pest or weed control at 31 g/ha ([19]; Lolium multiflorum, pre-emergence, 240 h, 31 g ai/ha, Preemergence, 0 to 100 scale where 0 is no effect and 100 is complete control, read-out: Ryegrass, Italian plant response rating): 50% | pest or weed control at 125 g/ha ([19]; Lolium multiflorum, pre-emergence, 240 h, 125 g ai/ha, preemergence, 0 to 100 scale where 0 is no effect and 100 is complete control, approx. 10 d, read-out: Ryegrass, Italian plant response rating): 60% | pest or weed control at 31 g/ha ([20]; Bassia scoparia, pre-emergence, 240 h, 31 g ai/ha, Preemergence, 0 to 100 scale where 0 is no effect and 100 is complete control, read-out: Kochia plant response rating): 0% | pest or weed control at 125 g/ha ([20]; Bassia scoparia, pre-emergence, 240 h, 125 g ai/ha, preemergence, 0 to 100 scale where 0 is no effect and 100 is complete control, approx. 10 d, read-out: Kochia plant response rating): 0%

CN1CC(c2ccc(C(F)(F)F)c(F)c2)C(C(=O)Nc2ccccc2S(C)(=O)=O)C1=O (stereo not drawn) [Compound 397]
Plant response rating, Barnyardgrass ([1]; 13 to 15 d): 65 | Plant response rating, Rice ([2]; 13 to 15 d): 0 | Plant response rating, Sedge, Umbrella ([3]; 13 to 15 d): 0 | Plant response rating, Ducksalad ([4]; 13 to 15 d): 75 | Pigweed plant response rating [5, 21]: 40 | Plant response rating, Pigweed [5, 22]: 70 | Corn plant response rating [6, 21]: 50 | Plant response rating, Corn [6, 22]: 70 | Barnyardgrass plant response rating [7, 21]: 70 | Plant response rating, Barnyardgrass [7, 22]: 90 | Foxtail, Giant plant response rating [8, 21]: 70 | Plant response rating, Foxtail, Giant [8, 22]: 80 | Ragweed plant response rating [9, 21]: 0 | Plant response rating, Ragweed [9, 22]: 20 | Wheat plant response rating [10, 21]: 40 | Plant response rating, Wheat [10, 22]: 50 | Ryegrass, Italian plant response rating [11, 21]: 40 | Plant response rating, Ryegrass, Italian [11, 22]: 60 | Blackgrass plant response rating [12, 21]: 60 | Plant response rating, Blackgrass [12, 22]: 70 | Galium plant response rating [13, 21]: 60 | Plant response rating, Galium [13, 22]: 60 | Kochia plant response rating [14, 21]: 20 | Plant response rating, Kochia [14, 22]: 50 | Plant response rating, Pigweed [15, 23]: 90 | Pigweed plant response rating (0 to 100 scale, 0 is no effect, 100 is complete control) [15, 24]: 90 | Plant response rating, Barnyardgrass [16, 23]: 80 | Barnyardgrass plant response rating (0 to 100 scale, 0 is no effect, 100 is complete control) [16, 24]: 90 | Plant response rating, Foxtail, Giant [17, 23]: 90 | Foxtail, Giant plant response rating (0 to 100 scale, 0 is no effect, 100 is complete control) [17, 24]: 90 | Plant response rating, Ragweed [18, 23]: 50 | Ragweed plant response rating (0 to 100 scale, 0 is no effect, 100 is complete control) [18, 24]: 70 | Plant response rating, Ryegrass, Italian [19, 23]: 30 | Ryegrass, Italian plant response rating (0 to 100 scale, 0 is no effect, 100 is complete control) [19, 24]: 70 | Plant response rating, Kochia [20, 23]: 70 | Kochia plant response rating (0 to 100 scale, 0 is no effect, 100 is complete control) [20, 24]: 90
